For data set [1], the system named is EGF receptor. As to the kind of experiment: Western blot analysis of in vitro assay with EGF receptor. The data set is classed as biochemical.
Data set [2] has as its system athymic nude mouse skin. As to the kind of experiment: Acute topical toxicity on athymic nude mouse skin. Format: in vivo. As to the method: FIGS. 9A, 9B, 9C, 9D and 9E show color photographs. Topical Application of MC on Athymic Nude Mouse Skin. Histological sections were taken from paraffin-embedded tissue and were stained with hematoxylin and eosin. Panel a is vehicle control; panel b is 100 μM MC; panel c is 1 mM MC; panel d is 10 mM MC; and panel e is 100 mM MC. Magnification is 200x.
FIGS. 13A, 13B and 13C show color photographs of mice. […] Photographs were taken after animal sacrifice upon termination of the experiments.
Acute topical toxicity of MC was assessed by its application to athymic mouse skin and observation for inflammation, ulceration or other signs of toxicity after 5x weekly applications for 2 weeks and by microscopical analysis of paraffin-embedded sections of athymic mouse skin after MC application. Male nu/nu mice, 8 weeks old, were subdivided into 5 treatments groups and MC was administered topically in 10% DMSO in acetone vehicle. Mice were treated with a control vehicle, 100 μM MC, 1 mM MC, 10 mM MC or 100 mM MC. Treatment was 5 times per week for two weeks, after which animals were sacrificed and dorsal skin was fixed in Carnoy's solution at 4° C. for 24 hours followed by ethanol 100%. Histological sections were taken from paraffin-embedded tissue and were stained with hematoxylin and eosin. FIG. 13 illustrates the effect of MC on the skin of nude mice.
Male nu/nu mice, 8 weeks old, were subdivided into treatment groups and MC was administered topically to dorsal skin in 10% DMSO in acetone vehicle (25 μl). Treatment was 5 times per week for two weeks. […] MC itself is yellow-brown, so some discoloration would be expected due to drug deposition and accumulation at this high concentration.

Data set [3] deals with primary mouse keratinocytes. The data set is described as follows: MTT cytotoxicity assay. Format: cell-based. As to conditions: within 4 hours, medium with 1.4 mM Ca2+. As to the method:
FIGS. 3A and 3B. A: Time course for cornification of primary mouse keratinocytes in response to MC. Boxes represent […] Ca^2+, triangles represent 100 μM MC, 1.4 mM Ca^2+, and solid circles represent 1 mM MC, 1.4 mM Ca^2+. […] Cells were incubated in medium with 1.4 mM Ca^2+ and MC for 4 hours, then were incubated with MTT (0.5 mg/ml in medium) for a further 4 hours before determination of formazan production.
MTT is a dye which is reduced by mitochondrial dehydrogenase enzymes to a blue formazan product. Ability of cells to reduce MTT can be used to measure cell viability (Mosmann T., J. Immunol. Methods, 65, 55-63, 1983). Cells were incubated in 96 well plates with or without MC for the indicated time, then were incubated for a further 4 hours with 0.5 mg/ml MTT. Medium was removed and 88.9% DMSO, 11.11% glycine buffer (100 mM glycine, 100 mM NaCL pH 10.5) was added to each well. Plates were shaken for 20 minutes to allow formazan dissolution, then absorbance was measured on a plate reader at 570 nm.
A general note: Tetrazolium assays rely on reduction of a dye to a coloured formazan, in cell work by metabolically active cells.

Data set [4] concerns NIH 3T3 fibroblasts. The data set is described as follows: Protein envelope formation in NIH 3T3 fibroblasts. Format: cell-based.
For data set [5], the system named is HPV 18 infected human keratinocytes. The data set is described as follows: Cornified envelope (cross-linked protein) assay, HPV 18 infected keratinocytes. The data set is classed as cell-based. As to conditions: 48 h, 0.1-1 mM. The text has this:
FIG. 1. MC Increases Cross-linked Protein in Epidermal Cell Lines. Black squares represent HPV 18 human epithelial keratinocytes; black circles represent SV 40 infected human keratinocytes; black triangles represent (SQCC-Y1) cells; white triangles represent (SP-1) benign tumor mouse keratinocytes; white squares represent (308 cells) benign mouse keratinocytes; and white circles represent (I-7) cells mouse squamous cell carcinoma.
Primary mouse keratinocytes were isolated from BALB/c newborn mouse skin. Primary keratinocytes, the benign neoplastic keratinocyte cell lines 308 and SP-1 (Strickland et al, Cancer Res., 48, 165-169, 1988) and the mouse squamous cell carcinoma line 1-7 (Greenhalgh et al., Proc. Natl. Acad. Sci., 87, 643-647, 1990) were grown in Eagle's minimal essential medium with 8% fetal calf serum (FCS) (chelexed) and penicillin 20 iu/ml, streptomycin 20 ug/ml (P/S). Unless otherwise indicated, the Ca^2+ concentration in medium was adjusted to 0.05 mM (Hennings et al., Cells, 19, 245-254, 1980). […]
(§1) Cells were incubated with MC for 48 hours, then cross-linked protein was isolated and measured as described in Example 1.
(§2) The assay measures insoluble cross-linked protein envelopes as described (Hough-Monroe et al. Analytical biochem., 199, 25-28, 1991), with modifications as follows. […] Absorbance of eluate was measured on a Titertek plate reader at 600 nm.

For data set [6] the following is noted: Hori et al., J. Antibiot., 45, 280-282, 1992; cited from earlier work.
The test system of data set [7] is A431 human epidermoid carcinoma cells. As to the kind of experiment: Cornified envelope (cross-linked protein) assay, A431 cells. The data set is classed as cell-based.
From the text: FIG. 5. Cross-linked Protein Production vs Growth Inhibition in A431 ([…]) Cells. Cell growth is represented by black circles and crosslinked protein production by white circles. Results are ±SD (n=3) of one experiment, representative of three.
Primary mouse keratinocytes were isolated from BALB/c newborn mouse skin. Primary keratinocytes, the benign neoplastic keratinocyte cell lines 308 and SP-1 (Strickland et al, Cancer Res., 48, 165-169, 1988) and the mouse squamous cell carcinoma line 1-7 (Greenhalgh et al., Proc. Natl. Acad. Sci., 87, 643-647, 1990) were grown in Eagle's minimal essential medium with 8% fetal calf serum (FCS) (chelexed) and penicillin 20 iu/ml, streptomycin 20 ug/ml (P/S). […]
as §1, §2
Cells were seeded at low density and were treated with MC for 3 days. Cells were then counted and increase in cell number was compared to untreated controls, or cells were processed for cross-linked protein (FIG. 5).

The subject of data set [8] is SQCC-Y1 human squamous carcinoma cells. As to the kind of experiment: Cornified envelope (cross-linked protein) assay, SQCC-Y1 cells. The conditions noted are these: SQCC-Y1, 48 h, 0.1-1 mM. The data set is classed as cell-based.

“Also recorded” adds a separate entry of the source.

With `COC(=O)C=Cc1cc(O)ccc1O` [MC, methyl 2,5-dihydroxycinnamate], the “MC-induced mobility retardation of the EGF receptor, effect of DTT” value in data set [1] (DTT, Western blot) is “did inhibit MC-induced mobility retardation of the EGF receptor”. In data set [1] (effect of DTT on MC tyrosine kinase inhibition, in vitro), the “tyrosine kinase inhibition in presence of DTT” value was “did not prevent tyrosine kinase inhibition”. Also, in data set [2] (mouse, in vivo), the “microscopy: inflammatory infiltrates” value is “focal inflammatory infiltrates were visible”, the “microscopy: necrosis” value is listed as “no obvious necrosis”, the “microscopy: vacuolation of epidermal cells” value is on record as “some vacuolation of epidermal cells” and the “systemic toxicity or changes in skin at the application site” value is listed as “No changes were observed”. In data set [2] (up to 10 mM, topical, normal athymic mouse skin), the “acute toxicity or inflammation by microscopy” value is given as “not acutely toxic or inflammatory”. Further, the “MTT reduction / cell death” value in data set [3] was “cell death; also recorded: Inhibits MTT Reduction”. Further, in data set [4] (3T3 cells, simultaneous DTT 20 mM, 37° and 4° C.), the “effect of DTT on cross-linking by MC” value is “prevented cross-linking”. The “protein envelopes induced in NIH 3T3 fibroblasts” value in data set [4] (even when incubated at 4° C. in phosphate buffered saline) was “induced protein envelopes”. Besides, the “cross-linked protein (envelope production)” value (from here on “cross-linked protein”) in data set [5] was “induced crosslinked envelope production; also recorded: increased cross-linked protein in a dose-dependent manner”. Also, in data set [6], the “half life in serum” value is listed as “short”. In addition, the “cross-linked protein” value in data set [7] (A431, 48 h, 0.1-1 mM) is on record as “induced crosslinked envelope production; also recorded: increased cross-linked protein in a dose-dependent manner”. Besides, the minimal effective concentration in data set [7] (Homo sapiens, A-431, 72 h, A431, 3 days, read-out: concentration at which protein cross-linking is evident) is no less than 250 µM. Moreover, the “cross-linked protein” value in data set [8] is reported as “induced crosslinked envelope production; also recorded: increased cross-linked protein in a dose-dependent manner”.

The values are drawn from US5610185A, “Method for the treatment of hyperproliferative epithelial skin diseases by topical application of hydroxylated aromatic protein cross-linking compounds” (The United States of America as represented by the …, priority 1995, dated 1997).
